This note sets out measurements from US5968980A, “1,3-dialkylurea derivative” (Santen Pharmaceutical Co., Ltd., priority 1994, dated 1999).

The experiment deals with T1, endopeptidase 24.11 (Rattus norvegicus, UniProt P07861).
T1 construct: A kidney was excised from a Wistar rat; from tissue; host or cells: Wistar rat kidney, crude membrane pellet suspended in HEPES buffer
T1 sequence (P07861 1-750): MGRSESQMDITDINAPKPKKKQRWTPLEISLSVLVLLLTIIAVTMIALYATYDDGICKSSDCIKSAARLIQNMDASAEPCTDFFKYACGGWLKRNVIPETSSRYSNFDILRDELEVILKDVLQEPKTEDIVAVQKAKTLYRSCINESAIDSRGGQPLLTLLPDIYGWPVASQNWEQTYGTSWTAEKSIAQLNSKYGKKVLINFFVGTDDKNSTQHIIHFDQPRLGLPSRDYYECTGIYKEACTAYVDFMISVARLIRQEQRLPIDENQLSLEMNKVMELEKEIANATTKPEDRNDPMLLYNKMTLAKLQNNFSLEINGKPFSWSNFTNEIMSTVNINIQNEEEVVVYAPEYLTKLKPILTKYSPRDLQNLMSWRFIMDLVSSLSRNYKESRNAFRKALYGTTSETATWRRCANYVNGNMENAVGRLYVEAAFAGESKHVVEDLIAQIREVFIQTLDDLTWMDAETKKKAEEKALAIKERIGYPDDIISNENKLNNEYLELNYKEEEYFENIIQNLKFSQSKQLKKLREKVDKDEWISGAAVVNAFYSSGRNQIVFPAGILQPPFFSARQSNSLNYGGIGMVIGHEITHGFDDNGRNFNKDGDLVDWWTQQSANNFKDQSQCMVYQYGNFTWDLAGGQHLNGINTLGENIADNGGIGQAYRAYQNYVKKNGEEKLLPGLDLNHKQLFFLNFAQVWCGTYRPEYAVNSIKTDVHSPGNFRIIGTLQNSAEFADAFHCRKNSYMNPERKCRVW
Kind of experiment: inhibition of endopeptidase 24.11 activity (DAGNPG cleavage, fluorescence, rat kidney enzyme preparation). In kind it is biochemical. The conditions noted are these: DAGNPG 50 μM, 37° C., 30 minutes, pH 7.4, rat kidney enzyme preparation; read-out: IC50 (concentration required to inhibit endopeptidase 24.11 by 50%). The text has this:
As a method for measuring endopeptidase 24.11 activity, Florentin et al. had reported a method for measuring the enzyme activity by a degree of cleavage of a peptide bond between glycine and p-nitrophenylalanine using N-dansyl-D-alanyl-glycyl-p-nitrophenylalanyl-glycine (DAGNPG) as a substrate (Anal. Biochem., 141, 62-69 (1984)). An effect of the present compounds on endopeptidase 24.11 was examined according to the method described in the literature.
An enzyme preparation used in this pharmacological test was prepared by extracting from a rat kidney by the following method according to the method of Malfloy et al. (J. Biol. Chem., 259, 14365-14370 (1984)).
A kidney was excised from a Wistar rat. The kidney was homogenized in Tris-hydrochloric acid buffer (5 mM, pH 7.4, containing 125 mM D-mannitol and 12 mM magnesium chloride). The homogenate was centrifuged at low speed (1,000×g) to give a supernatant. The supernatant was ultracentrifuged ([…]) for 120 minutes. The resulting pellet was suspended in Tris-hydrochloric acid buffer (2.5 mM, pH 7.4, containing 62.5 mM D-mannitol and 6 mM magnesium chloride). The suspension was centrifuged at low speed and then ultracentrifuged again. The resulting pellet was suspended in HEPES buffer (5 mM, pH 7.4) to give the enzyme preparation.
In order to examine the effect of the present compounds on the enzyme preparation, reactions were performed under the following condition using mixed solutions consisting of the composition shown in Table 1.
Enzyme preparation 0.3-0.5 μg protein
The above-mentioned solution (150 μl) was incubated at 37° C. for 30 minutes and then boiled at 100° C. for five minutes. To the solution was added 1.35 ml of Tris-hydrochloric acid buffer (50 mM, pH 7.4). The mixture was centrifuged at moderate speed (5,000×g) for five minutes to give a supernatant. Fluorescence intensity of the supernatant (excitation at 342 nm of wave length and emission at 562 nm) was measured.
The degree of the inhibitory effect of each test compound on the enzyme preparation is expressed by the inhibition rate calculated by the following equation. [formula]
A: fluorescence intensity of the sample in the absence of the test compound
B: fluorescence intensity of the sample in the presence of the test compound
`CC(C)CN(CC(CCc1ccccc1)C(=O)O)C(=O)N[C@@H](Cc1ccc(-c2ccccc2)cc1)C(=O)O` (mixture of isomers) [Compound No. 5-6, (2S)-3-(4-Biphenylyl)-2-[3-[(2RS)-2-carboxy-4-phenylbutyl]-3-isobutylureido]propionic acid]: the IC50 was 0.55 nM.
Regarding `CC(C)CCC(CN(CC(C)C)C(=O)N[C@@H](Cc1ccc(-c2ccccc2)cc1)C(=O)O)C(=O)O` (mixture of isomers) [Compound No. 7-3, (2S)-3-(4-Biphenylyl)-2-[3-[(2RS)-2-carboxy-5-methylhexyl]-3-isobutylureido]propionic acid], the IC50 turned out to be 4 nM.
Regarding `CC(C)CN(CC(CCc1ccccc1)C(=O)O)C(=O)N[C@@H](Cc1ccc2ccccc2c1)C(=O)O` (mixture of isomers) [Compound No. 7-6, (2S)-2-[3-[(2RS)-2-Carboxy-4-phenylbutyl]-3-isobutylureido]-3-(2-naphthyl)propionic acid], the IC50 is 3.1 nM.
Under `CC(C)CN(CC(OCc1ccccc1)C(=O)O)C(=O)N[C@@H](Cc1ccc(-c2ccccc2)cc1)C(=O)O` (single isomer, unassigned) [Compound No. 8-1, (2S)-2-[3-[(2S or 2R)-2-Benzyloxy-2-carboxyethyl]-3-isobutylureido]-3-(4-biphenylyl)propionic acid] stands 0.93 nM.
With `CC(C)CN(CC(CCc1ccccc1)C(=O)O)C(=O)N[C@@H](Cc1ccc(-c2ccccc2)cc1)C(=O)O` (single isomer, unassigned) [Compound No. 9-1, (2S)-3-(4-Biphenylyl)-2-[3-[(2S or 2R)-2-carboxy-4-phenylbutyl]-3-isobutylureido]propionic acid], the IC50 turned out to be 0.58 nM.
Regarding `CC(C)CN(CC(CCc1ccccc1)C(=O)NO)C(=O)N[C@@H](Cc1ccc(-c2ccccc2)cc1)C(=O)O` (single isomer, unassigned) [Compound No. 10-1, (2S)-3-(4-Biphenylyl)-2-[3-[(2S or 2R)-2-hydroxycarbamoyl-4-phenylbutyl]-3-isobutylureido]propionic acid], the IC50 stood at 2.1 nM.
On to `CC(C)CN(CCC(=O)O)C(=O)N[C@@H](Cc1ccc(-c2ccccc2)cc1)C(=O)O` [Compound No. 5-1, (2S)-3-(4-Biphenylyl)-2-[3-(2-carboxyethyl)-3-isobutylureido]propionic acid], for which the IC50 is 1.3 nM.
Under `CC(C)CN(CCC(=O)O)C(=O)N[C@@H](Cc1ccc2ccccc2c1)C(=O)O` [Compound No. 5-21, (2S)-2-[3-(2-Carboxyethyl)-3-isobutylureido]-3-(2-naphthyl)propionic acid] stands 9.3 nM.
